For orientation: pIC50 means the IC50 on a negative log10 scale, so that one unit is a factor of ten. Usually viability, T/C stands for the result in the treated group divided by that in the control group, in per cent. As a reminder, the IC50 is the point on the concentration scale where inhibition reaches its midpoint.

Structures are written as SMILES. pIC50: −log10 of the molar value. Values joined by “and” are separate entries in the source; they are usually repeats but may differ in a detail not shown here. Equal values may be shown once.

The assay has as its system 966289-007-R4-J1-PDC complex spheroid viability. The assay is described as follows: Anticancer human tumor 966289-007-R4-J1-PDC patient-derived pancreatic adenocarcinoma cell line growth inhibition [RAS]. To be noted: for pIC50: curve of first compound; for viability, T/C: stronger effect = lower value; for IC50: curve of compound. The essentials: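 Multi-cell-type spheroids: tumor cells plus HUVEC endothelial cells and mesenchymal stem cells. RAS-pathway inhibitors were combined with targeted agents, each dosed in half-log steps down from clinical Cmax, or from 10 microM when Cmax was unknown.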

The mark [1] stands for this setting: second compound 0.00316 µM, first compound 0.0316 µM.
[2] abbreviates: second compound 0.00316 µM, first compound 0.1 µM.
[3] abbreviates: second compound 0.01 µM, first compound 0.0316 µM.
Where [4] appears, read: second compound 0.01 µM, first compound 0.1 µM.
Setting [5] is: second compound 0.0316 µM, first compound 0.0316 µM.
The mark [6] stands for this setting: second compound 0.0316 µM, first compound 0.1 µM.
Setting [7] is: second compound 0.1 µM, first compound 0.0316 µM.
[8] abbreviates: second compound 0.1 µM, first compound 0.1 µM.
Setting [9] is: second compound 0.316 µM, first compound 0.0316 µM.
Setting [10] is: second compound 0.316 µM, first compound 0.1 µM.
Where [11] appears, read: second compound 1 µM, first compound 0.0316 µM.
Where [12] appears, read: second compound 1 µM, first compound 0.1 µM.
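Also: spheroids exposed to agents for one week before readout.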
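For viability, T/C in this document: percent viability relative to DMSO vehicle control wells as 100%.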

Regarding `CC(C)n1nc(-c2ccc3oc(N)nc3c2)c2c(N)ncnc21` + C=CC(=O)N1CCN(c2nc(OCC3CCCN3C)nc3c(F)c(-c4nc(N)cc(C)c4C(F)(F)F)c(Cl)cc23)C(C)C1, the pIC50 is, setting by setting: (second compound 0.00316 µM) 7.44; (second compound 0.01 µM) 7.48; (second compound 0.0316 µM) 7.36; (second compound 0.1 µM) 7.46; (second compound 0.316 µM) 7.29; (second compound 1 µM) 7.53. Moreover, the viability, T/C was 116% (second compound 0.00316 µM, first compound 0.000316 µM); 83.6% (second compound 0.00316 µM, first compound 0.001 µM); 111% (second compound 0.00316 µM, first compound 0.00316 µM); 105% (second compound 0.00316 µM, first compound 0.01 µM); 54.5% under setting [1]; 17.7% under setting [2]. Further, the viability, T/C (second compound 0.01 µM, first compound 0.000316 µM) was 110%; the viability, T/C (second compound 0.01 µM, first compound 0.001 µM) is 108%; the viability, T/C (second compound 0.01 µM, first compound 0.00316 µM) is 112%; the viability, T/C (second compound 0.01 µM, first compound 0.01 µM) is 94.2%; the viability, T/C under setting [3] is 51.5%; the viability, T/C under setting [4] was 19.6%. Besides, the viability, T/C (second compound 0.0316 µM, first compound 0.000316 µM) was 123%; the viability, T/C (second compound 0.0316 µM, first compound 0.001 µM) was 113%; the viability, T/C (second compound 0.0316 µM, first compound 0.00316 µM) is 121%; the viability, T/C (second compound 0.0316 µM, first compound 0.01 µM) was 101%; the viability, T/C under setting [5] was 62.5%; the viability, T/C under setting [6] was 18.9%. Besides, the viability, T/C by setting is: (second compound 0.1 µM, first compound 0.000316 µM) 103%; (second compound 0.1 µM, first compound 0.001 µM) 97.3%; (second compound 0.1 µM, first compound 0.00316 µM) 106%; (second compound 0.1 µM, first compound 0.01 µM) 106%; under setting [7], 52.4%; under setting [8], 21.1%. Further, the viability, T/C runs as follows: (second compound 0.316 µM, first compound 0.000316 µM) 103%; (second compound 0.316 µM, first compound 0.001 µM) 82.2%; (second compound 0.316 µM, first compound 0.00316 µM) 132%; (second compound 0.316 µM, first compound 0.01 µM) 116%; under setting [9], 68.4%; under setting [10], 24.9%. The viability, T/C is, setting by setting: (second compound 1 µM, first compound 0.000316 µM) 92.5%; (second compound 1 µM, first compound 0.001 µM) 102%; (second compound 1 µM, first compound 0.00316 µM) 111%; (second compound 1 µM, first compound 0.01 µM) 91.9%; under setting [11], 47.1%; under setting [12], 20.3%.

With `Nc1ccn(C2OC(CO)C(O)C2(F)F)c(=O)n1` (stereo not given), the IC50 is 7.29 nM [middle of 4 runs]. Further, the viability, T/C (compound 0.00316 µM) was 100% and 92.9% and 103% (2×). For the same compound, for the setting “compound 0.01 µM”, the viability, T/C is 30.1% [middle of 4 runs]. Besides, the viability, T/C (compound 0.0316 µM) was 1.12% and 1.45% (2×) and 1.74%. For the same compound, the viability, T/C (compound 0.1 µM) is 1.25% [middle of 4 runs]. Further, under “compound 0.316 µM”, the viability, T/C is 0.85% and 1.16% and 1.48%. In addition, where the note is “compound 1 µM”, the viability, T/C is 1.33% [middle of 4 runs].

Take `CC1(C)CCC(Nc2ncc(C(F)(F)F)c(-c3c[nH]c4c(P(C)(C)=O)c(C#N)ccc34)n2)CN1` (stereo not given): the viability, T/C is 15.1% [middle of 4 runs] (compound 0.03 µM), 10.5% [middle of 4 runs] (compound 0.0949 µM) and 8.72% [middle of 4 runs] (compound 0.3 µM).

With `CCc1c2c(nc3ccc(O)cc13)-c1cc3c(c(=O)n1C2)COC(=O)[C@]3(O)CC`, the IC50 was 1.62 nM [middle of 4 runs]. Further, where the note is “compound 0.003 µM”, the viability, T/C was 2.73% [middle of 4 runs]. For the same compound, the viability, T/C (compound 0.00949 µM) was 1.18% [middle of 4 runs]. Further, the viability, T/C (compound 0.03 µM) was 0.96% [middle of 4 runs]. For the same compound, where the note is “compound 0.0949 µM”, the viability, T/C was 0.88% [middle of 4 runs]. In addition, where the note is “compound 0.3 µM”, the viability, T/C is 0.94% [middle of 4 runs].

Regarding `CCC(CC)c1cc(NC2CCC(N)C2)n2nccc2n1` (stereo not given) + C=CC(=O)N1CCN(c2nc(OCC3CCCN3C)nc3c(F)c(-c4nc(N)cc(C)c4C(F)(F)F)c(Cl)cc23)C(C)C1, the pIC50 reads like this: (second compound 0.00316 µM) 5.72; (second compound 0.01 µM) 5.74; (second compound 0.0316 µM) 5.73; (second compound 0.1 µM) 5.73; (second compound 0.316 µM) 5.73; (second compound 1 µM) 5.74. Also, the viability, T/C was 104% under setting [1]; 93.6% under setting [2]; 112% (second compound 0.00316 µM, first compound 0.316 µM); 131% (second compound 0.00316 µM, first compound 1 µM); 2.16% (second compound 0.00316 µM, first compound 3.16 µM); 2.13% (second compound 0.00316 µM, first compound 10 µM). Also, the viability, T/C runs as follows: under setting [3], 99.5%; under setting [4], 95.7%; (second compound 0.01 µM, first compound 0.316 µM) 101%; (second compound 0.01 µM, first compound 1 µM) 114%; (second compound 0.01 µM, first compound 3.16 µM) 2.2%; (second compound 0.01 µM, first compound 10 µM) 2.15%. Moreover, the viability, T/C runs as follows: under setting [5], 92%; under setting [6], 102%; (second compound 0.0316 µM, first compound 0.316 µM) 103%; (second compound 0.0316 µM, first compound 1 µM) 123%; (second compound 0.0316 µM, first compound 3.16 µM) 2.15%; (second compound 0.0316 µM, first compound 10 µM) 1.75%. The viability, T/C under setting [7] was 103%; the viability, T/C under setting [8] was 103%; the viability, T/C (second compound 0.1 µM, first compound 0.316 µM) is 111%; the viability, T/C (second compound 0.1 µM, first compound 1 µM) is 117%; the viability, T/C (second compound 0.1 µM, first compound 3.16 µM) was 2.07%; the viability, T/C (second compound 0.1 µM, first compound 10 µM) was 2.09%. Further, the viability, T/C was 103% under setting [9]; 97.9% under setting [10]; 98.8% (second compound 0.316 µM, first compound 0.316 µM); 125% (second compound 0.316 µM, first compound 1 µM); 2.42% (second compound 0.316 µM, first compound 3.16 µM); 2.33% (second compound 0.316 µM, first compound 10 µM). For the same compound, the viability, T/C was 91.4% under setting [11]; 92.1% under setting [12]; 119% (second compound 1 µM, first compound 0.316 µM); 113% (second compound 1 µM, first compound 1 µM); 2.27% (second compound 1 µM, first compound 3.16 µM); 2.77% (second compound 1 µM, first compound 10 µM).

For the origin of these results see PubChem BioAssay AID2060897 (Molecular Pharmacology Branch, DTP, NCI, 2025).
